Tests used:
A2780/CP70 cells = assay: MTT cell proliferation assay, A2780/CP70 ovarian cancer cells; type: cell-based, human; details: A2780/CP70, apigenin alone, 24 h
Experimental: FIG. 1. […] (A) A2780/CP70 cells and human fibroblast GM847 cells were seeded in 96-well plate at 4×10^3 cells per well and incubated overnight. […] The cells were incubated for 24 h. Cell proliferation was determined by MTT reduction. […] Cells were trypsinized, harvested, washed once with PBS buffer, and stained using the Annexin-V-Folus Kit as per the manufacture's instructions. […] After incubation, all cells were collected and total DNA was isolated. Eight (8) μg of DNA was resolved on 1.8% agarose gel. […] (D) Treatment of GM847 cells was the same as that of 5D. […] Cleavage of caspase-3 and PARP was detected by western-blot.
FIG. 3. […] A2780/CP70 cells were seeded in 96-well plates and incubated overnight. The old medium was discarded and fresh medium with cisplatin (CDDP) in the presence or absence of apigenin (Api) was added. In 24 h, the cell proliferation was determined by means of MTT reduction method.
FIG. 9. […] A, Cisplatin-resistant ovarian cancer cell line A2780/CP70, and B, prostate cancer cells PC-3 were seeded in 96-well plates at 1×10^4 cells/well and incubated overnight. […] In 24 h, the cell proliferation was assayed by using a MTT assay kit. *indicates significant difference compared to cisplatin alone (p<0.01).

[1] = test system: tumors induced by A2780/CP70 cells; assay: Tumor weight of A2780/CP70 tumors on CAM; type: in vivo, chicken embryo; details: 10 μM apigenin or 2.5 μM CDDP+10 μM apigenin, 10 days
Experimental: FIG. 4. […] The A2780/CP70 cells were seeded into 100 mm dish and grown to 90-100% confluence. […] In 10 days, the tumors were harvested and weighed. The blood vessel numbers of the tumor were counted under×100. At least five areas were determined. The data are mean±SD from two experiments (n=8). A, representative tumor morphology; B, tumor weight; C, relative numbers of blood vessels.

Question: What does the source list for O=c1cc(-c2ccc(O)cc2)oc2cc(O)cc(O)c12 [apigenin, 4′,5,7,-trihydroxyflavone]?
Answer: effect on cell proliferation (A2780/CP70 cells): inhibited cell proliferation; inhibition of tumor growth [1]: 40%

From patent US8377918B2 (ACC Therapeutics Inc, priority 2005, dated 2013)
